From ChEMBL document CHEMBL1128981, “A comparison of steroidal and non-steroidal inhibitors of human steroid 5-reductase: New tricyclic aryl acid inhibitors of the type-1 isozyme” (Bioorg Med Chem Lett, 1996)

Experiments:
[1] = biological target: T1, 3-oxo-5-alpha-steroid 4-dehydrogenase 2 (Homo sapiens, UniProt P31213); test: Inhibition of type-2 human steroid 5-alpha-reductase.; settings: read-out: Ki app
T1 sequence (P31213 whole entry): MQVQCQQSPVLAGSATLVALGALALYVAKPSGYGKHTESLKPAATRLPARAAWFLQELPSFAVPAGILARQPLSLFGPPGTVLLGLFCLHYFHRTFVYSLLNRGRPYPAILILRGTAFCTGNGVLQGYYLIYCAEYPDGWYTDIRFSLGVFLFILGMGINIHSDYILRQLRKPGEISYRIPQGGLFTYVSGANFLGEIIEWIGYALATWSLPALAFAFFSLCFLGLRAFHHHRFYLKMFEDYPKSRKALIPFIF

[2] = biological target: T2, 3-oxo-5-alpha-steroid 4-dehydrogenase 1 (Homo sapiens, UniProt P18405); test: Inhibition of type-1 human steroid 5-alpha-reductase; settings: read-out: Ki app
T2 sequence (P18405 whole entry): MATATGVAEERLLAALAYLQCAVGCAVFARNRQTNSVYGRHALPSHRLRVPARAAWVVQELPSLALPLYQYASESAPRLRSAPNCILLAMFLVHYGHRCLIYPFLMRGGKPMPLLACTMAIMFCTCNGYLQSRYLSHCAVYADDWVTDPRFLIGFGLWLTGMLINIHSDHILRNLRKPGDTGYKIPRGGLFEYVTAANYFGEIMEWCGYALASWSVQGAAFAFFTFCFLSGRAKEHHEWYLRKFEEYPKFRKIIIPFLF

[3] = biological target: T3, 3-oxo-5-alpha-steroid 4-dehydrogenase 2 (Homo sapiens) (UniProt P31213); settings: 10 uM
T3 sequence (whole entry): T1 sequence (P31213 whole entry)
Description: Inhibitory activity against type-2 human steroid 5-alpha-reductase at a concentration of 10 uM

[4] = biological target: T4, 3-oxo-5-alpha-steroid 4-dehydrogenase 1 (Homo sapiens) (UniProt P18405); test: Inhibitory activity against type-1 human steroid 5-alpha-reductase at a concentration of 2.5 uM
T4 sequence (whole entry): T2 sequence (P18405 whole entry)

[5] = biological target: T1, 3-oxo-5-alpha-steroid 4-dehydrogenase 2; test: Inhibitory activity against type-2 human steroid 5-alpha-reductase at a concentration of 1 uM: No inhibition
[6] = biological target: T2, 3-oxo-5-alpha-steroid 4-dehydrogenase 1; test: Inhibitory activity against type-1 human steroid 5-alpha-reductase.
[7] = biological target: T1, 3-oxo-5-alpha-steroid 4-dehydrogenase 2; test: Inhibitory activity against type-2 human steroid 5-alpha-reductase.
[8] = biological target: T1, 3-oxo-5-alpha-steroid 4-dehydrogenase 2; test: (§1) Inhibitory activity against type-2 human steroid 5-alpha-reductase at a concentration of 1 uM; No inhibition
[9] = biological target: T1, 3-oxo-5-alpha-steroid 4-dehydrogenase 2; test: as §1; remark: listed apart in the source
[10] = biological target: T3, 3-oxo-5-alpha-steroid 4-dehydrogenase 2 (Homo sapiens); test: Inhibitory activity against type-2 human steroid 5-alpha-reductase at a concentration of 2.5 uM
[11] = biological target: T3, 3-oxo-5-alpha-steroid 4-dehydrogenase 2 (Homo sapiens); settings: 20 uM
Description: Inhibitory activity against type-2 human steroid 5-alpha-reductase at a concentration of 20 uM

## O=C(O)c1ccc2c(c1)CCc1ccccc1-2
[1]
  Ki: 10000 nM
[2]
  Ki: 315 nM
[3]
  inhibition: 20%

## CC(C)(C)NC(=O)[C@H]1CCC2C3CC=C4C=C([PH](=O)O)CC[C@]4(C)C3CC[C@@]21C (some centres undefined)
[1]
  Ki: 1.3 nM
[2]
  Ki: 3200 nM

## COc1cccc2c1CC[C@H]1C=C([N+](=O)[O-])CC[C@]21C
[4]
  inhibition: 10%
[5]
  Ki app: Not Active
[2]
  Ki: > 2500 nM

## O=C(O)c1ccc2c(c1)Cc1ccccc1-2
[4]
  inhibition: 30%
[1]
  Ki: 10000 nM
[2]
  Ki: > 2500 nM

## CC(C)(C)NC(=O)[C@H]1CC[C@H]2[C@@H]3CC[C@H]4NC(=O)C=C[C@]4(C)[C@H]3CC[C@]12C [FINASTERIDE]
[6]
  IC50: 500 nM
[7]
  IC50: 4.2 nM

## CC(C)N(C(=O)[C@H]1CCC2C3CC[C@H]4C=C([N+](=O)[O-])CC[C@]4(C)C3CC[C@@]21C)C(C)C (some centres undefined)
[1]
  Ki: 30 nM
[2]
  Ki: 4200 nM

## CN1C(=O)CC[C@]2(C)c3ccc(Cl)cc3CC[C@@H]12
[8]
  Ki app: Not Active
[9]
  Ki app: Not Active

## O=C(O)c1ccc2c(c1)CCc1cc(Cl)ccc1-2
[10]
  inhibition: 50%
[1]
  Ki: 2500 nM
[2]
  Ki: 320 nM

## CC(C)(C)NC(=O)[C@H]1CC[C@H]2[C@@H]3CCc4cc(C(=O)O)ccc4[C@H]3CC[C@]12C
[1]
  Ki: 0.4 nM
[2]
  Ki: 1600 nM

## C[C@]12CCC(C(=O)O)=CC1=CCc1cc(Cl)ccc12
[1]
  Ki: 260 nM
[2]
  Ki: 1200 nM

## C[C@]12CCC([PH](=O)O)=CC1=CCc1cc(Cl)ccc12
[1]
  Ki: 1600 nM
[2]
  Ki: 1900 nM

## CC1=C2NCc3cc(Cl)ccc3[C@@]2(C)CCC1=O
[1]
  Ki: 20000 nM
[2]
  Ki: 920 nM
[11]
  inhibition: 49%

## CCN(CC)C(=O)[C@H]1CC[C@H]2[C@@H]3CC[C@H]4N(C)C(=O)CC[C@]4(C)[C@H]3CC[C@]12C
[1]
  Ki: 2 nM
[2]
  Ki: 3 nM

## O=C(O)c1ccc2c(c1)CCc1cc(Br)ccc1-2
[1]
  Ki: 10000 nM
[2]
  Ki: 26 nM

## CC(C)CC(=O)[C@H]1CCC2C3CNC4=CC(=O)CC[C@]4(C)C3CC[C@@]21C (some centres undefined)
[1]
  Ki: 0.08 nM
